# Biological target: T1, human TLR8 (Homo sapiens, UniProt Q9NR97)
# T1 construct: expressed in transfected cells; host or cells: HEK293 (ATCC CRL-1573), pIRES vector, G-418 selected
# T1 sequence (Q9NR97 27-1041): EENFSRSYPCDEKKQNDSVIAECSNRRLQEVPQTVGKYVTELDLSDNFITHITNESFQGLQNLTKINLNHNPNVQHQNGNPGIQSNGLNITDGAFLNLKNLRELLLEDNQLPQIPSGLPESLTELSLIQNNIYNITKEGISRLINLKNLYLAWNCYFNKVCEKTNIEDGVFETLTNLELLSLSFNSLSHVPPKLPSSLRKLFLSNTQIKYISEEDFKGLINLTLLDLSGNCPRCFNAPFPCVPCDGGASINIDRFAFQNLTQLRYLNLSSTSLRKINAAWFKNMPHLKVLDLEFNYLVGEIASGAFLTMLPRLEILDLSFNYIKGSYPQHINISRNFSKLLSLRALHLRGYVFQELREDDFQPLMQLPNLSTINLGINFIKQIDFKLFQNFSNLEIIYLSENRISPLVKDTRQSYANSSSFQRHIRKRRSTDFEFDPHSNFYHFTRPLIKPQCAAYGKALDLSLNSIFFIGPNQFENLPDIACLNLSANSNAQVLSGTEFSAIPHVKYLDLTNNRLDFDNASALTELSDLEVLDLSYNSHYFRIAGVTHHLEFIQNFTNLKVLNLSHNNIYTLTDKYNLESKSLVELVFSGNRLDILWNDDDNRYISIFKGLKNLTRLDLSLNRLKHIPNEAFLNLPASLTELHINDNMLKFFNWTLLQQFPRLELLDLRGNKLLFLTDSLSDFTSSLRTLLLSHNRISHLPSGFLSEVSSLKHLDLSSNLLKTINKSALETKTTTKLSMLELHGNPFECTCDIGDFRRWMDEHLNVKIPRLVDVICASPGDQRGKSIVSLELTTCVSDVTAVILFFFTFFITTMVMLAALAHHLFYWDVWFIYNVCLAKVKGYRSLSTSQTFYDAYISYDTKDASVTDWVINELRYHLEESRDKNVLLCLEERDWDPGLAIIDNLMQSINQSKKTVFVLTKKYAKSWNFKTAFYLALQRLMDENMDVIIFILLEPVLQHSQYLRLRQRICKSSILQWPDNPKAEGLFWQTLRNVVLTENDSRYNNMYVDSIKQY
# Assay: NFκB-luciferase reporter assay in HEK293 cells transfected with human TLR8 (HEK293-TLR8)
# Format: cell-based
# Conditions: HEK293-TLR8, 10 μM IRM, 16 hours
# Protocol: A compound was identified as increasing cellular activity mediated through a given TLR if it induced at least a two-fold increase in NFκB-induced luciferase signal compared to the control.
# HEK293 medium was prepared from 90% Minimum Essential Medium (MEM) with 2 mM L-glutamine and Earle's Balanced Salt Solution (Invitrogen Corp., Rockville, Md.) adjusted to contain 1.5 g/L sodium bicarbonate, 0.1 mM non-essential amino acids, and 1.0 mM sodium pyruvate; 10% heat-inactivated fetal calf serum. HEK293 cells were cultured by incubating cells in HEK293 medium overnight at 37° C., 8% CO2.
# The cells were co-transfected with (1) pIRES (BD Biosciences Clontech, Palo Alto, Calif.) either (a) unmodified (HEK293-vector), (b) containing an expressible human TLR7 gene (HEK293-TLR7), or (c) containing an expressible human TLR8 gene (HEK293-TLR8), and (2) NFκB-luc reporter (Stratagene, La Jolla, Calif.) in a 10:1 ratio with Fugene 6 transfection reagent (Roche Diagnostics Corp., Indianapolis, Ind.) following the manufacturer's instructions.
# The cells were stimulated with 1 μL of IRM compounds at 1 mM in DMSO (final IRM concentration of 10 μM) or 1 μL DMSO as a control. The plates were then incubated an additional 16 hours at 37° C., 5% CO2. The luciferase signal was read using the LucLite kit (Packard Instrument Co., Meriden, Conn.). Luminescence was measured on an LMAX luminometer (Molecular Devices Corp., Sunnyvale, Calif.).
row,Structure (SMILES),TLR8: fold increase of NFκB-induced luciferase signal compared to a DMSO control [fold increase]
1,"CCOCc1nc2c(N)nc3ccccc3c2n1CC(C)C [IRM1, 2-(ethoxymethyl)-1-(2-methylpropyl)-1H-imidazo[4,5-c]quinolin-4-amine]",1.02
2,"COCCc1nc2c(N)nc3ccccc3c2n1CCOCCN(C)C(=O)C1CCCCC1 [IRM3, N-(2-{2-[4-amino-2-(2-methoxyethyl)-1H-imidazo[4,5-c]quinolin-1-yl]ethoxy}ethyl)-N-methylcyclohexanecarboxamide]",1.14
3,"CCCCc1nc2c(N)nc3ccccc3c2n1CCCCCS(C)(=O)=O [IRM6, 2-butyl-1-[5-(methylsulfonyl)pentyl]-1H-imidazo[4,5-c]quinolin-4-amine]",0.90
4,"CCc1nc2c(N)nc3ccccc3c2n1CCCCNC(=O)C1CCCCC1 [IRM8, N-[4-(4-amino-2-ethyl-1H-imidazo[4,5-c]quinolin-1-yl)butyl]cyclohexanecarboxamide]",0.99
5,"CCc1nc2c(N)nc3ccccc3c2n1CCCCSc1cc(Cl)cc(Cl)c1 [IRM14, 1-{4-[(3,5-dichlorophenyl)thio]butyl}-2-ethyl-1H-imidazo[4,5-c]quinolin-4-amine]",4.18
6,"CCOCc1nc2c(N)nc3c(c2n1CC(C)(C)O)CCCC3 [IRM16, 4-amino-2-ethoxymethyl-α,α-dimethyl-6,7,8,9-tetrahydro-1H-imidazo[4,5-c]quinoline-1-ethanol]",8.64
7,"COCCc1nc2c(N)nc3ccccc3c2n1CCOCCNC(=O)Nc1ccccc1 [IRM19, N-(2-{2-[4-amino-2-(2-methoxyethyl)-1H-imidazo[4,5-c]quinolin-1-yl)ethoxy}ethyl)-N′-phenylurea]",7.25
8,"CCC(C)NC(=S)NCCn1c(CCOC)nc2c(N)nc3ccccc3c21 (stereo not drawn) [IRM21, N-{2-[4-amino-2-(2-methoxyethyl)-1H-imidazo[4,5-c]quinolin-1-yl]ethyl}-N′-sec-butylthiourea]",5.92
9,"COCCc1nc2c(N)nc3c(c2n1CC(C)(C)NS(C)(=O)=O)CCCC3 [IRM22, N-{2-[4-amino-2-(2-methoxyethyl)-6,7,8,9-tetrahydro-1H-imidazo[4,5-c]quinolin-1-yl]-1,1-dimethylethyl}methanesulfonamide]",7.37

# — patent publication US20040171086A1, “Selective modulation of TLR-mediated biological activity” (3M Innovative Properties Company, priority 2003, published 2004)
